The source of these data is patent US20070259375A1, “Biomarkers and Methods for Determining Sensitivity to Epidermal Growth Factor Receptor Modulators in Non-Small Cell Lung Cancer” (Bristol-Myers Squibb Company, priority 2004, published 2007).

For one assay, the system named is A549. In words: Relative drug sensitivity in NSCLC cell lines, BrdU Cell Proliferation ELISA. The note with it: A549 cell line, EGFR+. The format is cell-based, human. The procedure: (§1) The NSCLC cell lines were grown using standard cell culture conditions: DMEM supplemented to contain 10% fetal bovine serum, 100 IU/ml penicillin, […] streptomycin and 2 mM L-glutamine (all from Invitrogen Life Technologies, Carlsbad, Calif.). […] Cytotoxicity was assessed in cells by BrdU Cell Proliferation calorimetric ELISA (Roche Applied Science, Indianapolis, Ind.). This is a calorimetric immunoassay for the quantification of cell proliferation based on the measurement of BrdU incorporation during DNA synthesis. To carry out the assays, the NSCLC cells were plated at 2500-5000 cells/well in 96 well microtiter plates and 24 hours later diluted monoclonal antibody drug was added. […] The cells were incubated at 37° C. for 48 hours at which time the BrdU labeling reagent was added. After two hours the labeling medium was removed and cells were fixed and the DNA was denatured using a FixDenat solution. The anti-BrdU antibody conjugated with peroxidase was added and immune complexes were detected by the subsequent substrate reaction. The reaction product was quantified by measuring the absorbance of the samples in an ELISA reader at […]. The greater the absorbency, the greater the number of live cells. […] Three to six independent BrdU assays were performed for each cell line.
(An ELISA detects its analyte on a solid surface through an enzyme-linked reagent.)

The subject of the next assay is ChagoK1. Described as above. It counts as cell-based, human. The conditions noted are these: ChagoK1 cell line. The procedure: as §1
For a further assay, the system named is H226. The assay is described as above. The format is cell-based, human. The conditions noted are these: H226 cell line, EGFR+. The procedure:
as §1

The next assay deals with H522. The description is as above. It counts as cell-based, human. The conditions noted are these: H522 cell line, EGFR negative. The procedure:
as §1

A further assay relates to L2987. The assay is described as above. The conditions noted are these: L2987 cell line. It counts as cell-based, human. The procedure: as §1
The test system of another assay is LX1. The description is as above. It counts as cell-based, human. The note with it: LX1 (LX-1) cell line, EGFR negative. The procedure:
as §1

The next assay concerns A549 lung xenograft. In words: In vivo antitumor testing, lung xenograft model. The note with it: nude mice. The procedure: (§2) Tumors were propagated in nude mice as subcutaneous (sc) transplants using tumor fragments obtained from donor mice. Tumor passage occurred approximately every two to four weeks. Tumors were then allowed to grow to the pre-determined size window (usually between 100-200 mg, tumors outside the range were excluded) and animals were evenly distributed to various treatment and control groups. […] Treated animals were checked daily for treatment related toxicity/mortality. Each group of animals was weighed before the initiation of treatment (Wt1) and then again following the last treatment dose (Wt2). The difference in body weight (Wt2-Wt1) provided a measure of treatment-related toxicity. Tumor response was determined by measurement of tumors with a caliper twice a week, until the tumors reached a predetermined target size of 1 gm or became necrotic. Tumor weights (mg) were estimated from the formula: Tumor weight=(length×width^2)/2 Antitumor activity was determined in terms of primary tumor growth inhibition. This was determined in two ways: (i) calculating the relative median tumor weight (MTW) of treated (T) and control (C) mice at various time points (effects were expressed as % T/C); and (ii) calculating the tumor growth delay (T-C value), defined as the difference in time (days) required for the treated tumors (T) to reach a predetermined target size compared to those of the control group (C). Statistical evaluations of data were performed using Gehan's generalized Wilcoxon test for comparisons of time to reach tumor target size (Gehan 1965). Statistical significance was declared at p<0.05. Antitumor activity was defined as a continuous MTW % T/C≦50% for at least 1 tumor volume doubling time (TVDT) any time after the start of treatment, where TVDT (tumor volume doubling time)=median time (days) for control tumors to reach target size−median time (days) for control tumors to reach half the target size.
(§3) Treated animals were checked daily for treatment related toxicity/mortality.

The next assay deals with L2987 lung xenograft. In words: In vivo antitumor testing, lung xenograft model. The conditions noted are these: nude mice. The procedure: as §2, §3
In a further assay the test system is LX1 lung xenograft. In words: In vivo antitumor testing, lung xenograft model. The conditions noted are these: nude mice. The procedure: as §2, §3

As for `COc1cc2ncnc(Nc3ccc(F)c(Cl)c3)c2cc1OCCCN1CCOCC1` [gefitinib], the resistance/sensitivity classification entry in the assay with A549 is on record as “resistant”; in the assay with ChagoK1, “sensitive”; with H226, “resistant”; in the assay on H522, “resistant”; in the assay on L2987, “resistant”; in the assay on LX1, “resistant”. The “sensitivity of lung xenograft model” value with A549 lung xenograft is listed as “borderline sensitive”; in the assay on L2987 lung xenograft it was “sensitive”; in the assay on LX1 lung xenograft, “resistant”.
